Patent US12251449B2, “Synthetic multidomain peptide biomaterials that inhibit inducible nitric oxide synthase” (William Marsh Rice University, priority 2019, dated 2025)
Where “and” joins values, the source holds several entries; their conditions need not be identical. Equal values may be shown once. Entries after “also recorded” stand apart in the source; their conditions may differ. *1 amine or outer side, *2 acyl side, *3 side chain or, on linkers, in order; H or OH if unused. Where a SMILES comes first, the peptide text is derived from it. [ ]: non-standard residue; d: D form. X1 = CC(=N)NCCCC[C@H](N[*:1])C(=O)[*:2]

Key:
MOC1 cells = assay: Live-dead viability of MOC1 cells on L-NIL-MDP hydrogel; format: cell-based, mouse; settings: cultured on hydrogel over 7 days
Protocol: Cell culture. The murine oral cancer cell line, MOC1 was provided by Dr. Ravindra Uppaluri (Dana-Farber Cancer Institute, Harvard University, Boston, MA) and maintained as previously described (Judd et al., 2012). For in vitro experiments, mouse MOC1 cells were cultured at 37° C. with 5% CO2 in media routinely used for maintaining this cell line (Judd et al., 2012). For live-dead viability studies done using 2-D culture, peptide hydrogel 70 μL in volume (thickness approximately 1.75 mm) were pipetted into the wells of Lab-Tek 16 well chamber slides (Thermo Fisher, Rochester, NY). The gels were pipetted carefully into the bottom of the wells, and the plates were gently tapped down onto the bench top before shear recovery to flatten the pipetted gels and facilitate uniform spreading of the material. After pipetting, time was allowed for the samples to shear recover (5-10 min) before the addition of 200 μL cell media and 5,000 MOC1 cells. Each time point (days 1, 3, 7) had separate slides prepared with duplicate gels. Cell media was replaced every 2 days, carefully pipetting to avoid dislodging the gel material. […] Image processing was done with NIS Elements (Nikon Instruments, Melville, NY), and Imaris Cell Counting software (Bitplane, Concord, MA) was used to quantify live-dead percentages.

[1] = CDN drug release kinetics from hydrogels; format: physicochemical
Protocol: Drug release kinetics. For release kinetics studies of CDN release from various hydrogel formulations, aliquots of CDN-loaded gel (30 μL each) were deposited into 96 well Falcon® flat bottom plates (Becton Dickinson Labware, Franklin Lakes, NJ). 30 μL gel was pipetted to generate a cylindrical puck in each well for each experiment. The pipetted gels were allowed to shear recover for approximately 5-10 min before adding 200 μL of the relevant buffer to the top of the gels (1× HBSS for all MDPs, 1× DPBS for collagen, Matrigel, 1× HBSS with 0.1 M CaCl2) for alginate, etc. according to the gelation requirements of the material). The addition of buffer was defined as t=0 for the beginning of release kinetics experiments. Table 1 summarizes the material conditions and preparation methods used for various comparative CDN delivery kinetics studies.
A Nanodrop 2000C Spectrophotometer (Thermo Scientific) was used to measure drug release by UV absorbance at 259 nm for CDN ML RR-S2 CDA, using an extinction coefficient of 24,000 M^−1cm^−1 (259 nm). Absorbance measurements were obtained by removing […] from the top of the liquid buffers above the loaded gels, over time measuring the increase in absorbance. Over the course of the first 24 hours, release of CDN was measured usually every 1-2 hours and converted to total percent released, with additional measurements also made every 24 hours for up to a week to establish when equilibrium had been reached.

[2] = Subcutaneous hydrogel implants, histology (persistence, degradation, host response); format: in vivo, mice; settings: 3-21 days
Protocol: (§1) Subcutaneous experiments and histology. C57BL/6J female mice were purchased from The Jackson Laboratory at age 8-12 weeks for subcutaneous characterization experiments. Mice were housed under specific pathogen-free conditions in standard temperature and lighting conditions with free access to food and water, and experiments were conducted with approval of the Institutional Animal Care and Use Committee (IACUC) at Rice University and according to NIH guidelines. Mice were injected with 100 μL MDP hydrogels in each of four separate sites in the subcutaneous space of the dorsal flank after the skin was shaved and sterilized with alcohol. At days 3, 7, 14, and 21 the mice were euthanized and the dorsal skin around the entire implant was removed, fixed overnight in 10% neutral buffered formalin, processed and paraffin embedded, and finally sectioned at […] thickness for staining using standard Masson's trichrome or hematoxylin and eosin (H&E) procedures, as well as immunohistochemical analyses (e.g., anti-nitrotyrosine IHC, or α-SMA blood vessel analysis).
Evaluation of material biocompatibility, degradation, and immune response profile in vivo was performed by histological analysis of hydrogel implants injected subcutaneously in healthy mice. […]

iNOS = assay: Anti-nitrotyrosine immunostaining of subcutaneously injected hydrogels; format: in vivo, mice; settings: subcutaneous implants, 3 and 7 days post injection
Protocol: as §1
Immunohistochemistry staining was performed on hydrogel implant tissue sections to further study in vivo properties of the L-NIL-MDP compared to related cationic MDPs. Anti-nitrotyrosine immunostaining was used to assess relative levels of nitrosylation of tyrosine within and around the subcutaneously injected hydrogel implants as a marker of iNOS inhibition (FIGS. 7A-H). It is known that the formation of nitric oxide (NO) and other nitrogen oxides in vivo can lead to observable post-translation modifications of peptides and proteins (Ischiropoulos, 2003). For example, surface-exposed 3-nitrotyrosine can be used as a marker of cell or tissue inflammation and damage by reactive nitrogen and oxygen species such as NO (Ahsan, 2013). The higher the local levels of iNOS activity, the greater should be the density of nitrosylated tyrosine. Therefore, visualization of nitrotyrosine levels by targeted antibodies can serve as a general indication of in vivo iNOS activity, or in the case of the L-NIL-MDP, local iNOS inhibition.

[3] = Oscillatory rheology of peptide hydrogels; format: physicochemical; settings: hydrogel at 1 wt. % in HBSS with sucrose
Protocol: Oscillatory rheology. Peptide hydrogels were analyzed for their mechanical properties by oscillatory rheology using a TA Instruments AR-G2 rheometer (TA Instruments, New Castle, DE). Samples of 150 μL of 1 wt. % MDP hydrogels were prepared 24 hours prior to use for rheology, to allow full equilibration of the material. Gel samples were then transferred from a cut syringe onto the rheometer stage equipped with a 12 mm stainless-steel parallel plate set to a […] gap height. The following program was used to monitor the storage modulus (G′) and loss modulus (G″) under various conditions as has been previously published (Li & Hartgerink, 2017). Strain sweep analysis was performed using an applied strain of 0.01-200% at a frequency of 1 rad/s. Frequency sweep analysis was performed under 1% strain at 0.1-100 rad/s. Shear recovery analysis was performed by subjecting the peptide sample to 1% strain for 20 min, then 200% for 1 min, and finally 1% for 20 min, allowing for disruption of the hydrogel and monitoring of G′ and G″ recovery.

## CC(=N)NCCCC[C@H](NC(=O)[C@H](CCCCNC(C)=N)NC(=O)[C@H](CC(C)C)NC(=O)[C@H](CO)NC(=O)[C@H](CC(C)C)NC(=O)[C@H](CO)NC(=O)[C@H](CC(C)C)NC(=O)[C@H](CO)NC(=O)[C@H](CC(C)C)NC(=O)[C@H](CO)NC(=O)[C@H](CC(C)C)NC(=O)[C@H](CO)NC(=O)[C@H](CC(C)C)NC(=O)[C@H](CO)NC(=O)[C@H](CCCCNC(C)=N)NC(=O)[C@H](CCCCNC(C)=N)NC(C)=O)C(N)=O [L-NIL-MDP] (Ac-[X1][X1]SLSLSLSLSLSL[X1][X1]-NH2)
MOC1 cells
  viability of MOC1 cells (in words): high viability
[1]
  CDN release profile (in words): comparable or even better controlled release
[2]
  inflammatory reaction after injection (in words): does not cause a chronic inflammatory reaction
iNOS
  nitrotyrosine staining intensity (in words): significantly lower; also recorded: lowest degree of nitrotyrosine staining
[3]
  loss modulus (G″): 20-25 Pa and ~25 Pa
  storage modulus (G′): 260-300 Pa and ~300 Pa
